We go through five compounds from US4266034A, “Method for producing microbial cells and use thereof to produce oxidation products” (priority 1979, dated 1981).

In assay [1] the test system is methanol-grown Methylococcus capsulatus CRL M1 (NRRL B-11,219). Nature of the assay: Production of 2-butanone from 2-butanol by cell suspensions, inhibition studies. It counts as cell-based. Particulars: 1 mM.
The subject of assay [2] is secondary alcohol dehydrogenase. The assay is described as follows: Purified yeast-derived secondary alcohol dehydrogenase activity. It counts as biochemical, Pichia sp. NRRL Y-11,328. As to conditions: purified enzyme. The procedure: Large scale cultures of Pichia sp. NRRL Y-11,328 were grown with aeration at 30° C. in a 14-liter New Brunswick f fermentor in a mineral salt medium containing methanol (0.4%, v/v) as the sole carbon source. The cells (200 g., wet weight) were suspended in […] sodium phosphate buffer, pH 7.0, containing 1 mM dithiothreitol (buffer A), and crude extracts were prepared as described previously. To the crude extracts, 18 ml. of protamine sulfate solution [2% solution in 0.1 M tris (hydroxymethyl) aminomethane (tris) base] was added dropwise with continuous stirring. After standing for 30 min., the extracts were centrifuged at 20,000×g. for 60 min. The supernatant solution was fractionated with solid ammonium sulfate. Extracts were brought to 50% of saturation with respect to ammonium sulfate by addition of 313 g. of the salt per liter of extract. Precipitated proteins was removed by centrifugation, and 137 g. of ammonium sulfate was added per liter of the supernatant liquid to bring it to 70% of saturation. Material precipitating between 50 and 70% of saturation was collected by centrifugation and dissolved in buffer A. This preparation was dialyzed overnight against buffer A, and the dialyzed material was applied to a DEAE-cellulose column (5×40 cm) that had been equilibrated with buffer A. The sample was washed with 200 ml. of buffer A and eluted with 2 liters of buffer A that contained NaCl in a linear gradient running from a concentration of 0 to 0.5 M. Fractions of 15 ml. were collected. Fractions containing secondary alcohol dehydrogenase activity were pooled and were termed DEAE-cellulose eluate. The DEAE-cellulose eluate was concentrated by ammonium sulfate fractionation.
Secondary alcohol dehydrogenase activity was measured spectrophotometrically at 340 nm with a NAD^+ as an electron acceptor. The reaction mixture, in a total 3.0 ml., contained 50 mM phosphate buffer, pH 8.0, 5 μmoles NAD^+, crude extracts, and substrate. […] Protein concentration was determined by the method of Lowry et al.
The substrate specificity of the purified secondary alcohol dehydrogenase was examined spectrophotometrically.

The test system of assay [3] is secondary alcohol dehydrogenase (SADH). Nature of the assay: Purified secondary alcohol dehydrogenase (SADH) activity. The assay is classed as biochemical, Pseudomonas sp. ATCC 21439. As to conditions: each inhibitor 1 mM; measured spectrofluorometrically. The protocol: Secondary alcohol dehydrogenase (SADH) from an obligate methanol utilizer, Pseudomonas sp. ATCC 21439 was purified as follows. […] 0.05 M sodium phosphate buffer, pH 7.0 with 0.5 mM dithiothretol (buffer A) and were disrupted sonically (5×1 min.). The crude extract was separated by centrifugation. The crude extract was heat-treated at 50° C. in a water bath for 10 minutes. The resulting precipitate was removed by centrifugation. To the supernatant solution, 25 ml of protamine sulfate solution (2% solution in 0.1 M Tris base) was added dropwise with continuous stirring. After standing for 30 minutes, the extract was centrifuged. The supernatant solution was fractionated with solid ammonium sulfate. The material precipitating between 30 and 60% saturation was collected and was dialized overnight against buffer A. The The dialized material was applied to a DEAE-cellulose column (3 cm by 35 cm) that had been equilibrated with buffer A. The secondary alcohol dehydrogenase activity was eluted in the void volume. This DEAE-cellulose eluate was concentrated by ammonium sulfate fractionation. Material precipitating between 30 and 50% ammonium sulfate saturation was collected by centrifugation and dialyzed overnight against A. This fraction was further washed and filtered through an Amicon unit with XM 50 membrane. The concentrated fraction (6 ml) inside the Amicon unit was applied to an Affi-Gel Blue column (0.8 cm×18 cm) which had been equilibrated with buffer A for affinity chromatography. The column was washed overnight with buffer A (0.18 ml./min.) and then was eluted with buffer A containing 5 mM NAD. Each 1 ml. fraction was collected.
The purified secondary alcohol dehydrogenase enzyme (SADH) may be used directly for converting C3 -C6 secondary alcohols to the corresponding methyl ketones by the procedures described above; however, a source of NAD^+ must be added to the reaction medium. One can determine the NAD-linked secondary alcohol dehydrogenase activity with a fluorescence spectrophotometer (Perkin Elmer, Model MPF 44A) by following the formation of reduced NAD (Ex 340 nm, Em 460 nm). The assay system (3 ml.) will typically contain: sodium phosphate buffer pH 7.0, 150 μmol; NAD 1.0 μmol; a given amount of enzyme preparation; and 20 μmol secondary alcohol. The reaction is started by the addition of secondary alcohol. One unit of SADH enzyme activity represents the reduction of one nmole NAD per minute.
The effect of metal-chelating agents and thioreagents on the activity of the purified SADH enzyme were studied. […] The possibility of ethanol or n-propanol as an inhibitor was studied.

The subject of assay [4] is cell-free particulate fractions derived from the methylotrophic microorganisms. The assay is described as follows: Inhibition of conversion of C3-C6 n-alkanes to sec. alcohols by cell-free particulate fractions. It counts as biochemical. As to conditions: oxygen and NADH. From the text: The conditions for preparing the cell suspensions or the cell-free particulate fractions from methane-grown methylotroph microorganisms is the same as described above. […] Tables XXV and XXVI show the conversion of C3 -C6 n-alkanes to the corresponding secondary alcohols using cell suspensions and cell-free particulate fractions, respectively, of methane-grown methylotroph microorganisms.

For assay [5], the system named is secondary alcohol dehydrogenase. Nature of the assay: Cofactor requirement of cell-free soluble extracts oxidizing 2-butanol. It counts as biochemical. Particulars: cell-free systems. The procedure:
Catalytic activity was also assayed by fluorescence spectrophotometry.

In the case of `c1cnc2c(c1)ccc1cccnc12` [1,10-Phenanthroline], the “Inhibition of 2-butanone production (yes/no)” value in assay [1] was “inhibited”. The “inhibition of secondary alcohol dehydrogenase activity” value in assay [2] is listed as “strongly inhibited”. The “% inhibition of SADH activity” value in assay [3] amounted to 95%. Further, the “inhibition of the conversion of n-alkanes to sec. alcohols” value (“inhibition … to sec. alcohols” below) in assay [4] was “inhibited”.
Turning to `NC(N)=S` [Thiourea], the “Inhibition (%) of production of 2-butanone” value in assay [1] is on record as “not inhibited”. Further, in assay [4], the “inhibition … to sec. alcohols” value is recorded as “inhibited”.
As for `N[C@@H](CCC(=O)N[C@@H](CS)C(=O)NCC(=O)O)C(=O)O` [glutathione], the “inhibition of secondary alcohol dehydrogenase activity” value in assay [2] is “strongly inhibited”. The “effectiveness as cofactor in place of NAD” value in assay [5] was “not effective”.
Consider `C[n+]1c2ccccc2nc2ccccc21` [phenazine methosulfate], for which the “ability to act as electron carrier in place of NAD^+” value in assay [2] is on record as “could not act as electron carrier”. Moreover, the “effectiveness as cofactor in place of NAD” value in assay [5] is recorded as “not effective”.
In the case of `c1ccc(-c2ccccn2)nc1` [α,α-Bipyridyl], the “Inhibition (%) of production of 2-butanone” value in assay [1] was “inhibited”. For the same compound, the “% inhibition of SADH activity” value in assay [3] was found to be 70%. In assay [4], the “inhibition … to sec. alcohols” value is “inhibited”.
